Some results are limits rather than exact numbers.

In turn, `Cc1cccc(C(C#N)N2CCOCC2)c1` (configuration not stated) returned a melting point of 59 to 60 °C.

Regarding `CCC(=O)N1CCC(NC(=O)NC2CCCCC2)CC1`, the melting point was in the range of 177 to 179 °C.

In the case of `Cc1cc(C)n(-c2cnc(CN)c(Nc3ccc(Cl)cc3)n2)n1`, the melting point is 156 to 160 °C.

Molecule `O=C(NCCO)c1cccc(-c2nccc3cc(Cc4cccc(C(F)(F)F)c4)oc23)c1` yielded a melting point of 168 to 169 °C.

Regarding `CCCCCCCCC=CCCCCCCCCOCC(CN(C)C)OCCCCCCCCC=CCCCCCCCC` (configuration not stated), the melting point fell in the range of 35 to 38 °C.

`CC(C)NC1=NS(=O)(=O)c2cc(Br)ccc2N1` showed a melting point above 220 °C.

Molecule `CC1(C)Oc2cc(Br)sc2C(N2CCCCC2=O)C1O` (configuration not stated) registered a melting point of 200 to 202 °C.

Molecule `CCCc1nc2c(N)nc3c(c2n1CC(C)(C)OCCS(C)(=O)=O)CCCC3` showed a melting point of 188 to 190 °C.

Take `CS(=O)(=O)c1ccc(-c2oc(CC(=O)O)nc2-c2ccc(F)cc2)cc1`: the melting point is 118 to 120 °C.

The molecule `CCc1cccc(C)c1CNc1cc(C(=O)N(C)C)cc2c1nc(CO)n2C` gave a melting point of 138 to 141 °C.

Molecule `COC1CCN2C(=O)c3cccc(NC(=O)Nc4cnc(C)cn4)c3C2C1` (configuration not stated) registered a melting point of 140 to 142 °C.

Consider `Clc1ccc2c(c1)-c1[nH]ncc1CO2`, for which the melting point lay within 175 to 176 °C.

With `CCOC(=O)COC(=O)c1cc2c(cn1)[nH]c1ccccc12`, the melting point lay within 165 to 168 °C.

In turn, `Cc1nccn1-c1cc(NC(=O)OC(C)(C)C)cc(C(F)(F)F)c1` came in with a melting point of 203 to 208 °C.

With `CCNC(=O)c1cccc(-c2cccc3cc(Cc4cccc(C(F)(F)F)c4)sc23)c1`, the melting point lay in the range of 122 to 123 °C.

Molecule `Cc1ccc(NC(=O)NCc2ccc3c(c2)CN(C2CCC(=O)NC2=O)C3=O)cc1O` (configuration not stated) registered a melting point of 273 to 275 °C.

`CCNC(=O)CCCC1CCN(Cc2cnc3cc(NC(=O)c4ccc(-c5ccc(F)cc5)cc4)ccc3c2)CC1` registered a melting point of 209 to 213 °C.

`O=C(O)Cc1cc(C(=O)C=Cc2ccc(C(=O)O)cc2)ccc1O` displayed a melting point above 260 °C.

`CC(C)(C)OC(=O)CC(C#N)c1ccc(Cl)c(Cl)c1` (configuration not stated): the melting point stood at 67 °C.

Molecule `CCCCCCCCCCCCC1=C(OC(=O)CC)C(=O)c2ccccc2C1=O` had a melting point of 42 to 44 °C.

`Nc1ccc(NNC(=O)c2ccccc2)cc1` had a melting point of 134 to 136 °C.

For the molecule `C=C1CCCCCCC(C(=O)OCC)NC1=O` (configuration not stated), the melting point was 91 to 92 °C.

With `CCC(C)C(=O)c1nc(C)nc2c1c(C)c(C)n2-c1c(C)cc(C)cc1C` (configuration not stated), the melting point was 133 to 135 °C.

As for `O=c1cc(-c2ccncc2)nc2n1CCCN2CCCc1c[nH]c2ccccc12`, the melting point is 230 to 232 °C.

Molecule `CCc1cc(C(=O)OC(C)C)c2cc(C(C)C)cccc1-2` had a melting point of 69 to 71 °C.

With `CSc1[nH]c(-c2cnn(-c3c(Cl)cc(C(F)(F)F)cc3Cl)n2)nc1[N+](=O)[O-]`, the melting point was in the range of 153 to 155 °C.

As to `Nc1ccc(C(c2ccccc2)c2ccccc2)nc1`, the melting point was in the range of 130 to 134 °C.

`Cc1oc(-c2ccccc2)nc1COc1ccc(COC(=O)Cc2cccc(OCc3ccc(OCc4nc(-c5ccccc5)oc4C)cc3)c2)cc1` returned a melting point of 90 to 91 °C.

`CCOP(=O)(OCC)C(CCc1cc(C)nc2cc(OC(=O)c3ccccc3)nn12)P(=O)(OCC)OCC` displayed a melting point of 56 to 57 °C.

`NC(=O)c1cc(-c2ccc(OC(F)(F)F)cc2)c2c3c(ccc2c1)OCO3` had a melting point of 188 to 190 °C.

`CC(NC(=O)c1cc(Cl)ccc1NC(=O)C1CC(=O)NN1)C1CC1` (configuration not stated) registered a melting point of 248 °C.

Molecule `CCN(CCOC)C(=O)C1=CC(c2ccccc2)C(=O)n2cc3cccc(Cl)c3c21` (configuration not stated) showed a melting point of 146 to 148 °C.

In turn, `CC(C)c1ccc(C(=O)c2ccc(N)cc2)cc1` showed a melting point of 110 °C.

`Cc1ccnc(C(=O)c2[nH]c3cc(Cl)ccc3c2NC(=O)C(C)(C)O)c1` came in with a melting point of 217 to 219 °C.

As to `CC(C)(C)OC(=O)NC1CCCCCC=CC2CC2(C(=O)NS(=O)(=O)C2CC2)NC(=O)C2CC(OC(=O)c3ccccc3)CN2C1=O` (configuration not stated), the melting point lay within 140 to 142 °C.

`COc1ccc(C(=O)Nc2cc(NC(=O)c3cccc(N(C)C)c3)ccc2Cl)cc1OC` came in with a melting point of 98 to 99 °C.

On to `CN(C)c1nc(N)ncc1Cc1ccccc1`, for which the melting point was 181 to 182 °C.

For `Cc1nc(N2CCN(CCCC(F)(F)F)C2=O)sc1C(=O)NCc1cccnc1`, the melting point lay in the range of 167 to 169 °C.

With `CCCOc1cc2c(=O)cc(C(=O)O)[nH]c2ccc1=O`, the melting point is above 250 °C.

The molecule `Cn1cc(-c2ccc3nc(NC(=O)c4ccc(C(C)(C)C)cc4)cn3n2)cn1` gave a melting point of 245 to 246 °C.

On to `Cc1cc(C)cc(C(=O)N2CCN(C(=O)CCNC3CCN(Cc4ccccc4)CC3)C(c3ccc(Cl)c(Cl)c3)C2)c1` (configuration not stated), for which the melting point fell in the range of 51 to 54 °C.

The molecule `CC(OCc1cc2cc(C(F)(F)F)ccc2n1S(=O)(=O)c1ccccc1)C(=O)O` (configuration not stated) gave a melting point of 72 to 74 °C.

For the molecule `C=C(C)c1ccccc1N1CCN(C(=O)Nc2cc(C)c(C)nc2OC)CC1`, the melting point is 139 to 140 °C.

In turn, `COc1nc2cc(Cl)c(F)c(CS(N)(=O)=O)c2nc1OC` showed a melting point of 227 to 228 °C.

As for `O=C1C(Cc2ccccc2)NC(=S)N1c1ccccc1` (configuration not stated), the melting point is 187 to 189 °C.

Regarding `NCC(O)C1=CC2(CCCC2)c2ccccc21` (configuration not stated), the melting point was 76 to 78 °C.

Molecule `CNC[C@@H](O)c1cc2ccccc2o1` showed a melting point of 88 to 90 °C.

The molecule `CCc1noc2cc(-c3ccccc3)n(C)c(=O)c12` displayed a melting point of 167 to 169 °C.

In turn, `C=Cc1nc(C#N)c(C#N)[nH]1` came in with a melting point of 168 to 170 °C.

`COc1cc(CNc2n[nH]c3ncnc(Nc4cccc(Cl)c4)c23)cc(OC)c1OC` showed a melting point of 240 to 245 °C.

Molecule `CCCn1c(SC)nc2cc(Br)sc2c1=O` gave a melting point of 138 to 141 °C.

In the case of `N[C@@]1(C(=O)O)C[C@H](NC(=O)Nc2ccccc2F)[C@H]2[C@H](C(=O)O)[C@H]21` (relative stereo), the melting point was above 270 °C.

As to `O=C1OC2(CCN(C(=O)Nc3ncc(-c4ccccc4)cn3)CC2)c2c(F)cccc21`, the melting point lay in the range of 244 to 246 °C.

Take `Nc1nc(N)nc(C2CC3CCC2C3)n1` (configuration not stated): the melting point is 216 to 217 °C.

Regarding `COc1ccc2oc(N)c(C#N)c(=O)c2c1`, the melting point stood at 320 °C.

`CS(=O)(=O)c1ccc(C(O)c2ccc3ccccc3c2)cc1` (configuration not stated) yielded a melting point of 100 °C.

In the case of `COC(=O)c1ccc2sc(C)c(Cl)c2c1`, the melting point lay in the range of 85 to 86 °C.

As to `CCSc1cc(C)nc(SCC)c1NC(=O)CCCCCCCCSc1nc2c(C)c(Cl)cc(C(C)C)c2o1`, the melting point lay in the range of 93 to 94 °C.

`CCc1c(N)nc(-c2ccc(Cl)c(OC)c2F)nc1C(=O)OC`: the melting point lay within 144 to 146 °C.

`C[C@@H]1OC(=O)C2=C[C@H]3CCCC[C@@H]3[C@@H](O)[C@H]21`: the melting point is 191 to 193 °C.

`CCOc1ccc(-c2c(S(C)(=O)=O)ccc(C(=O)c3cnn(C(C)(C)C)c3O)c2C)cc1` returned a melting point of 110 °C.

The molecule `CC(C)c1cccc(C(C)C)c1NC(=O)CNC(c1cccc(C(F)(F)F)c1)c1cccc(C(F)(F)F)c1` registered a melting point of 144 to 145 °C.

Regarding `O=C(NO)[C@H](CNS(=O)(=O)c1ccc(OCC2CC2)cc1)N1CCOCC1`, the melting point stood at 147 °C.

As to `C=CCOc1cc(C(=O)OCC)nc2c(CCC)c3oc(C(=O)OCC)cc(=O)c3cc12`, the melting point fell in the range of 151 to 153 °C.

As to `O=C(CI)N1CCN(C(=O)CI)CC1`, the melting point was in the range of 105 to 109 °C.

For the molecule `CCCc1nc(C#N)c(C#N)[nH]1`, the melting point lay within 141 to 144 °C.

As to `CC(=O)NCC1CN(c2ccc(N3CCN(c4nnc(C)s4)CC3)c(F)c2)C(=O)O1` (configuration not stated), the melting point lay in the range of 247 to 249 °C.

The molecule `Cc1ccc(S(=O)(=O)NC(=O)Nc2ccccc2)cc1` came in with a melting point of 166 °C.

`CCN(CC)S(=O)(=O)c1c(Cl)c(Cl)c(Cl)c2nc(C(F)(F)F)[nH]c12` gave a melting point of 155 to 157 °C.

`COC(=O)c1cccc(Oc2cccc(-c3nn(C)c(=Nc4ccc(Cl)c(Cl)c4)s3)c2)c1` returned a melting point of 193 to 196 °C.

`CC(C)(C)OC(=O)N1CC(CCl)c2c1ccc1ccc(C#N)cc21` (configuration not stated) showed a melting point of 138 to 140 °C.

Turning to `CC1CC2=CC(=O)C=CC2(C)C2C(=O)CC3(C)C(=O)CCC3C12` (configuration not stated), the melting point fell in the range of 257 to 259 °C.

In the case of `CC(=O)OC1CSC(Oc2cccnc2)C(OC(C)=O)C1OC(C)=O` (configuration not stated), the melting point is 147 °C.

On to `O=C1C=C(O)CC(CCc2ccc(O)cc2)(C2CCCCC2)O1` (configuration not stated), for which the melting point was in the range of 52 to 58 °C.

`CCCCCCCCCCCCCCCCCCN(C)CC(O)COC(c1ccccc1)(c1ccccc1)c1ccccc1` (configuration not stated) gave a melting point of 45 °C.

As to `O=C(NC(=O)C(c1ccccc1)c1ccccc1)OC1CCCCC1`, the melting point was in the range of 117 to 119 °C.

`CCOC(=O)C1(Br)Oc2cc(OC(C)=O)ccc2OC1Br` (configuration not stated): the melting point worked out at 131 °C.

In turn, `CS(=O)(=O)c1ccc(-c2cc(C(=O)c3ccc(Cl)cc3)sc2N2CCOCC2)cc1` came in with a melting point of 169 °C.

Molecule `CC1(C)OCc2cc(Cl)cc(C(O)c3cn(C(c4ccccc4)(c4ccccc4)c4ccccc4)cn3)c2O1` (configuration not stated) yielded a melting point of 120 °C.

Molecule `Cc1c(C)c2c(c(C)c1N)CC(C)(CSc1ccncc1)O2` (configuration not stated) showed a melting point of 96 to 97 °C.

The molecule `COC(=O)Oc1sc(-c2ccc(F)cc2)nc(=O)c1-c1c(C)cc(C)cc1C` registered a melting point of 129 to 131 °C.

Consider `Cc1cc(Nc2ccnc(Nc3ccc(S(=O)(=O)N4CCC(CNCCC(=O)N(C)C)CC4)cc3)n2)ccc1F`, for which the melting point stood at 201 °C.

The molecule `CC(=O)NC[C@H]1CN(c2ccc(N3CCC(=C(C)C#N)CC3)cc2)C(=O)O1` had a melting point of 94 to 96 °C.

Turning to `CCCN(CCC)CCCOc1ccc(-c2noc(-c3ccccc3)n2)cc1`, the melting point was 55 to 57 °C.

`O=C(O)c1c(C(O)=S)cc([N+](=O)[O-])cc1-c1ccccc1` showed a melting point of 182 to 184 °C.

With `CCOC(=O)C(=O)c1csc(NC(=O)CCl)n1`, the melting point lay within 178 to 180 °C.

For `COC(=O)CS(=O)(=O)CCCCCCn1nc(-c2ccccc2)c(-c2ccccc2)c1-c1ccccc1`, the melting point lay within 92.5 to 94.5 °C.
